# Assay results from patent US20250311727A1, “SUBSTITUTED 2-AMINOAZINES AND SALTS THEREOF, AND USE THEREOF AS HERBICIDAL ACTIVE SUBSTANCES” (BAYER AKTIENGESELLSCHAFT, priority 2022, published 2025).
# Key:
# Format in all cases: in vivo
# Echinochloa crus-galli [1] = assay: Pre-emergence herbicide efficacy at 320 g/ha, ECHCG; details: scored visually after about 3 weeks vs untreated controls, 100% = plants have died
# Procedure, shortened: (§1)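 Seeds were sown in sandy loam and covered with soil; WP or EC formulations were then sprayed onto the soil surface at 320 g/ha in 600 L/ha water with 0.5% additive. After about 3 weeks in the greenhouse, efficacy was scored visually as % versus untreated controls (100% = plants dead, 0% = like control).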
# Amaranthus retroflexus [2] = assay: Post-emergence herbicidal efficacy at 80 g/ha, AMARE; details: rated visually after about 3 weeks vs untreated controls, 100% = plants have died
# Procedure, shortened: (§2)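 Weeds grown in sandy loam under greenhouse conditions and sprayed post-emergence at the one-leaf stage (2–3 weeks after sowing) with WP or EC formulations plus 0.5% additive, 600 l/ha water. Activity scored visually about 3 weeks later versus untreated controls (0% = like control, 100% = plants dead).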
# Viola tricolor [3] = assay: Post-emergence herbicidal efficacy at 80 g/ha, VIOTR; details: rated visually after about 3 weeks vs untreated controls, 100% = plants have died
# Procedure, shortened: as §2
# Abutilon theophrasti [4] = assay: Post-emergence herbicidal efficacy at 320 g/ha, ABUTH; details: rated visually after about 3 weeks vs untreated controls, 100% = plants have died
# Procedure, shortened: (§3)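 Weeds grown in sandy loam in a greenhouse, both monocot and dicot species, and sprayed post-emergence at the one-leaf stage, 2–3 weeks after sowing. Spray was a WP or EC formulation with 0.5% additive in 600 L/ha water. Efficacy rated visually after about 3 weeks against untreated controls (0% = like control, 100% = plants dead).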
# Abutilon theophrasti [5] = assay: Pre-emergence herbicide efficacy at 320 g/ha, ABUTH; details: scored visually after about 3 weeks vs untreated controls, 100% = plants have died
# Procedure, shortened: as §1
# Kochia scoparia [6] = assay: Post-emergence herbicidal efficacy at 80 g/ha, KCHSC; details: rated visually after about 3 weeks vs untreated controls, 100% = plants have died
# Procedure, shortened: as §2
# Digitaria sanguinalis [7] = assay: Post-emergence herbicidal efficacy at 320 g/ha, DIGSA; details: rated visually after about 3 weeks vs untreated controls, 100% = plants have died
# Procedure, shortened: as §3
# Digitaria sanguinalis [8] = assay: Pre-emergence herbicide efficacy at 320 g/ha, DIGSA; details: scored visually after about 3 weeks vs untreated controls, 100% = plants have died
# Procedure, shortened: as §1
# Setaria viridis [9] = assay: Pre-emergence herbicide efficacy at 80 g/ha, SETVI
# Procedure, shortened: (§4)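 Pre-emergence test: pots sown with weed seeds, then compound (WP or EC) sprayed on the covering soil as aqueous suspension/emulsion with 0.5% additive at 600 l/ha water, here 80 g/ha. Greenhouse growth for about 3 weeks. Efficacy scored visually versus untreated controls, 0% (as control) to 100% (plants died).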
# Poa annua [10] = assay: Post-emergence herbicidal efficacy at 320 g/ha, POAAN; details: rated visually after about 3 weeks vs untreated controls, 100% = plants have died
# Procedure, shortened: as §3
# Veronica persica [11] = assay: Post-emergence herbicidal efficacy at 320 g/ha, VERPE; details: rated visually after about 3 weeks vs untreated controls, 100% = plants have died
# Procedure, shortened: as §3
# Stellaria media [12] = assay: Post-emergence herbicidal efficacy at 320 g/ha, STEME; details: rated visually after about 3 weeks vs untreated controls, 100% = plants have died
# Procedure, shortened: as §3
# Veronica persica [13] = assay: Pre-emergence herbicide efficacy at 320 g/ha, VERPE; details: scored visually after about 3 weeks vs untreated controls, 100% = plants have died
# Procedure, shortened: as §1
# Kochia scoparia [14] = assay: Pre-emergence herbicide efficacy at 320 g/ha, KCHSC; details: scored visually after about 3 weeks vs untreated controls, 100% = plants have died
# Procedure, shortened: as §1
# Amaranthus retroflexus [15] = assay: Pre-emergence herbicide efficacy at 80 g/ha, AMARE; details: scored visually after about 3 weeks vs untreated controls, 100% = plants have died
# Procedure, shortened: as §4
# Poa annua [16] = assay: Pre-emergence herbicide efficacy at 320 g/ha, POAAN; details: scored visually after about 3 weeks vs untreated controls, 100% = plants have died
# Procedure, shortened: as §1
# Setaria viridis [17] = assay: Pre-emergence herbicide efficacy at 320 g/ha, SETVI; details: scored visually after about 3 weeks vs untreated controls, 100% = plants have died
# Procedure, shortened: as §1
# Kochia scoparia [18] = assay: Pre-emergence herbicide efficacy at 80 g/ha, KCHSC; details: scored visually after about 3 weeks vs untreated controls, 100% = plants have died
# Text: (§5) Unwanted plants/weeds: • ABUTH: Abutilon theophrasti • ALOMY: Alopecurus myosuroides • AMARE: Amaranthus retroflexus • DIGSA: Digitaria sanguinalis • ECHCG: Echinochloa crus-galli • KCHSC: Kochia scoparia • LOLRI: Lolium rigidum • MATIN: Matricaria inodora • POAAN: Poa annua • POLCO: Polygonum convolvulus • SETVI: Setaria viridis • STEME: Stellaria media • VERPE: Veronica persica • VIOTR: Viola tricolor A. Post-Emergence Herbicidal Efficacy at 320 g/ha
# (§6) Seeds of monocotyledonous and dicotyledonous weed plants and crop plants were placed in plastic or organic planting pots and covered with soil. The compounds of the invention, formulated in the form of wettable powders (WP) or as emulsion concentrates (EC), were then applied to the surface of the covering soil as aqueous suspension or emulsion with addition of 0.5% additive at a water application rate equivalent to 600 l/ha. After the treatment, the pots were placed in a greenhouse and kept under good growth conditions for the test plants. After about 3 weeks, the efficacy of the preparations was scored visually in comparison with untreated controls as percentages. For example, 100% activity=the plants have died, 0% activity=like control plants.
# (§7) Tables D1 to D12 below show the effects of selected compounds of the general formula (I) according to Table 1 on various harmful plants and an application rate corresponding to 80 g/ha, which were obtained by the experimental procedure mentioned above.
# Viola tricolor [19] = assay: Pre-emergence herbicide efficacy at 80 g/ha, VIOTR
# Procedure, shortened: as §4
# Matricaria inodora [20] = assay: Pre-emergence herbicide efficacy at 80 g/ha, MATIN; details: scored visually after about 3 weeks vs untreated controls, 100% = plants have died
# Text: as §5, §6, §7
# Echinochloa crus-galli [21] = assay: Post-emergence herbicidal efficacy at 320 g/ha, ECHCG; details: rated visually after about 3 weeks vs untreated controls, 100% = plants have died
# Procedure, shortened: as §3
# Polygonum convolvulus = assay: Pre-emergence herbicide efficacy at 80 g/ha, POLCO; details: scored visually after about 3 weeks vs untreated controls, 100% = plants have died
# Text: as §5, §6, §7
# Veronica persica [22] = assay: Post-emergence herbicidal efficacy at 80 g/ha, VERPE; details: rated visually after about 3 weeks vs untreated controls, 100% = plants have died
# Procedure, shortened: as §2
# Digitaria sanguinalis [23] = assay: Pre-emergence herbicide efficacy at 80 g/ha, DIGSA; details: scored visually after about 3 weeks vs untreated controls, 100% = plants have died
# Procedure, shortened: as §4
# Stellaria media [24] = assay: Pre-emergence herbicide efficacy at 320 g/ha, STEME; details: scored visually after about 3 weeks vs untreated controls, 100% = plants have died
# Procedure, shortened: as §1
# Echinochloa crus-galli [25] = assay: Pre-emergence herbicide efficacy at 80 g/ha, ECHCG; details: scored visually after about 3 weeks vs untreated controls, 100% = plants have died
# Text: as §5, §6, §7
# Amaranthus retroflexus [26] = assay: Pre-emergence herbicide efficacy at 320 g/ha, AMARE; details: scored visually after about 3 weeks vs untreated controls, 100% = plants have died
# Procedure, shortened: as §1
# Lolium rigidum = assay: Pre-emergence herbicide efficacy at 320 g/ha, LOLRI; details: scored visually after about 3 weeks vs untreated controls, 100% = plants have died
# Text: as §5
# (§8) Seeds of mono- and dicotyledonous weed plants were placed in plastic pots in sandy loam soil (doubly sown with one species each of mono- or dicotyledonous weed plants per pot) and covered with soil. The compounds of the invention, formulated in the form of wettable powders (WP) or as emulsion concentrates (EC), were then applied to the surface of the covering soil as aqueous suspension or emulsion with addition of 0.5% additive at a water application rate of 600 litres per hectare (converted). After the treatment, the pots were placed in a greenhouse and kept under good growth conditions for the test plants. After about 3 weeks, the efficacy of the preparations was scored visually in comparison with untreated controls as percentages.
# (§9) For example, 100% activity=the plants have died, 0% activity=like control plants.
# (§10) Tables C1 to C12 below show the effects of selected compounds of the general formula (I) according to Table 1 on various harmful plants and at an application rate corresponding to 320 g/ha, which were obtained by the trial procedure specified above.
# Kochia scoparia [27] = assay: Post-emergence herbicidal efficacy at 320 g/ha, KCHSC; details: rated visually after about 3 weeks vs untreated controls, 100% = plants have died
# Procedure, shortened: as §3
# Matricaria inodora [28] = assay: Pre-emergence herbicide efficacy at 320 g/ha, MATIN; details: scored visually after about 3 weeks vs untreated controls, 100% = plants have died
# Text: as §5, §8, §9, §10
# Amaranthus retroflexus [29] = assay: Post-emergence herbicidal efficacy at 320 g/ha, AMARE; details: rated visually after about 3 weeks vs untreated controls, 100% = plants have died
# Procedure, shortened: as §3
# Setaria viridis [30] = assay: Post-emergence herbicidal efficacy at 320 g/ha, SETVI; details: rated visually after about 3 weeks vs untreated controls, 100% = plants have died
# Text: as §5
# Seeds of mono- and dicotyledonous weed plants were placed in plastic pots in sandy loam soil (doubly sown with in each case one species of mono- or dicotyledonous weed plants per pot), covered with soil and cultivated in a greenhouse under controlled growth conditions. 2 to 3 weeks after sowing, the test plants were treated at the one-leaf stage. The compounds of the invention, formulated in the form of wettable powders (WP) or as emulsion concentrates (EC), were applied to the green parts of the plants as aqueous suspension or emulsion with addition of 0.5% additive at a water application rate equivalent to 600 litres per hectare. After the test plants had been kept in the greenhouse under optimum growth conditions for about 3 weeks, the activity of the preparations was rated visually in comparison to untreated controls.
# as §9
# Tables A1 to A10 below show the effects of selected compounds of the general formula (I) according to Table 1 on various harmful plants and at an application rate corresponding to 320 g/ha, which were obtained by the trial procedure specified above.
# Veronica persica [31] = assay: Pre-emergence herbicide efficacy at 80 g/ha, VERPE
# Procedure, shortened: as §4
structure (smiles),measurement,setting,value
N#Cc1cccc(Nc2ncc(F)cn2)c1-n1cc(C(F)(F)F)cn1 [Example 1-60],Pre-emergence efficacy at 320 g/ha against ECHCG in %,Echinochloa crus-galli [1],90%
same,Post-emergence efficacy at 80 g/ha against AMARE in %,Amaranthus retroflexus [2],90%
same,Post-emergence efficacy at 80 g/ha against VIOTR in %,Viola tricolor [3],90%
same,Post-emergence efficacy at 320 g/ha against ABUTH in %,Abutilon theophrasti [4],90%
same,Pre-emergence efficacy at 320 g/ha against ABUTH in %,Abutilon theophrasti [5],90%
same,Post-emergence efficacy at 80 g/ha against KCHSC in %,Kochia scoparia [6],100%
same,Post-emergence efficacy at 320 g/ha against DIGSA in %,Digitaria sanguinalis [7],90%
same,Pre-emergence efficacy at 320 g/ha against DIGSA in %,Digitaria sanguinalis [8],100%
same,Pre-emergence efficacy against SETVI,Setaria viridis [9],100%
same,Post-emergence efficacy at 320 g/ha against POAAN in %,Poa annua [10],100%
same,Post-emergence efficacy at 320 g/ha against VERPE in %,Veronica persica [11],100%
same,Post-emergence efficacy at 320 g/ha against STEME in %,Stellaria media [12],100%
same,Pre-emergence efficacy at 320 g/ha against VERPE in %,Veronica persica [13],100%
same,Pre-emergence efficacy at 320 g/ha against KCHSC in %,Kochia scoparia [14],100%
same,Pre-emergence efficacy at 80 g/ha against AMARE in %,Amaranthus retroflexus [15],100%
same,Pre-emergence efficacy at 320 g/ha against POAAN in %,Poa annua [16],100%
same,Pre-emergence efficacy at 320 g/ha against SETVI in %,Setaria viridis [17],90%
same,Pre-emergence efficacy at 80 g/ha against KCHSC in %,Kochia scoparia [18],100%
same,Pre-emergence efficacy against VIOTR,Viola tricolor [19],100%
same,Pre-emergence efficacy at 80 g/ha against MATIN in %,Matricaria inodora [20],100%
same,Post-emergence efficacy at 320 g/ha against ECHCG in %,Echinochloa crus-galli [21],100%
same,Pre-emergence efficacy at 80 g/ha against POLCO in %,Polygonum convolvulus,100%
same,Post-emergence efficacy at 80 g/ha against VERPE in %,Veronica persica [22],100%
same,Pre-emergence efficacy at 80 g/ha against DIGSA in %,Digitaria sanguinalis [23],100%
same,Pre-emergence efficacy at 320 g/ha against STEME in %,Stellaria media [24],100%
same,Pre-emergence efficacy at 80 g/ha against ECHCG in %,Echinochloa crus-galli [25],80%
same,Pre-emergence efficacy at 320 g/ha against AMARE in %,Amaranthus retroflexus [26],100%
same,Pre-emergence efficacy at 320 g/ha against LOLRI in %,Lolium rigidum,90%
same,Post-emergence efficacy at 320 g/ha against KCHSC in %,Kochia scoparia [27],100%
same,Pre-emergence efficacy at 320 g/ha against MATIN in %,Matricaria inodora [28],100%
same,Post-emergence efficacy at 320 g/ha against AMARE in %,Amaranthus retroflexus [29],100%
same,Post-emergence efficacy at 320 g/ha against SETVI in %,Setaria viridis [30],90%
same,Pre-emergence efficacy against VERPE,Veronica persica [31],80%
